Measurements reported in the OPERA property sets (Mansouri et al. 2018).

Row | Compound | logP
1 | COc1ccc(NC(=O)NN)cc1 | 0.17
2 | NNC(=O)Nc1cccc(C(=O)O)c1 | -0.16
3 | Cc1ccc(NC(=O)NN)cc1 | 0.69
4 | NNC(=O)Nc1ccccc1O | 0.33
5 | Cc1cccc(NC(=O)NN)c1 | 0.68
6 | COc1ccccc1NC(=O)NN | -0.15
7 | NNC(=O)Nc1ccccc1 | 0.16
8 | NNC(=O)Nc1ccc(Cl)cc1 | 0.87
9 | NNC(=O)Nc1ccccc1[N+](=O)[O-] | -0.47
10 | NNC(=O)Nc1ccc([N+](=O)[O-])cc1 | -0.18
11 | NNC(=O)Nc1ccccc1C(=O)O | -0.49
12 | NNC(=O)Nc1ccc(C(=O)O)cc1 | -0.21
